Source: patent US10570168B2, “2′ and/or 5′ amino-acid ester phosphoramidate 3′-deoxy adenosine derivatives as anti- cancer compounds” (NuCana plc, priority 2014, dated 2020)

Tests used:
Type in all cases: cell-based
CCRFCEM = assay: Solid tumour and haematological malignancy assay (CellTiterGlo); conditions: Homo sapiens, CCRF-CEM, 72 h; for Emax: read-out: MI %; for IC50: read-out: IC50 (absolute IC50)
Experimental: (§1) In vitro viability assay were performed to assess the effects of compounds on cell viability in selected cell lines over 72 hr using the CellTiterGlo (CTG, Promega-G7573) assay. […] Cell viability assay using CellTiterGlo in 96-well plate were performed. Compound treatment 72 hrs, standard growth conditions, duplicates. Compounds were dissolved to 40 mM with thawed 100%. […] After compounds were dissolved in media, media containing compounds were warmed to 37° C. in incubator and then compounds in media were added to cell plates ([…]) in duplicates. […] All compound solubilities were checked and recorded again, then the plates were transferred to CO2 tissue culture incubator immediately and incubated for 3 days. DMSO final concentration is 0.5%.

HEL92.1.7 = assay: as above; conditions: Homo sapiens, HEL 92.1.7, 72 h; for Emax: read-out: MI %; for IC50: read-out: IC50 (absolute IC50)
Experimental: as §1

HL-60 = assay: as above; conditions: Homo sapiens, HL-60, 72 h; for Emax: read-out: MI %; for IC50: read-out: IC50 (absolute IC50)
Experimental: as §1

HT29 = assay: as above; conditions: Homo sapiens, HT-29, 72 h; for Emax: read-out: MI %; for IC50: read-out: IC50 (absolute IC50)
Experimental: as §1

HepG2 = assay: as above; conditions: Homo sapiens, HepG2, 72 h; for Emax: read-out: MI %; for IC50: read-out: IC50 (absolute IC50)
Experimental: as §1

K562 = assay: as above; conditions: Homo sapiens, K562, 72 h; for Emax: read-out: MI %; for IC50: read-out: IC50 (absolute IC50)
Experimental: as §1

KG-1 = assay: as above; conditions: Homo sapiens, KG-1, 72 h; for Emax: read-out: MI %; for IC50: read-out: IC50 (absolute IC50)
Experimental: as §1

MCF7 = assay: as above; conditions: Homo sapiens, MCF7, 72 h; for Emax: read-out: MI %; for IC50: read-out: IC50 (absolute IC50)
Experimental: as §1

MiaPaCa-2 = assay: as above; conditions: Homo sapiens, MIA PaCa-2, 72 h; for Emax: read-out: MI %; for IC50: read-out: IC50 (absolute IC50)
Experimental: as §1

BxPC-3-Luc = assay: as above; conditions: 72 h, read-out: EC50 (absolute EC50)
Experimental: (§2) In vitro viability assay were performed to assess the effects of compounds on cell viability in selected cell lines over 72 hr using the CellTiterGlo (CTG, Promega-G7573) assay. The tests were performed in duplicates with treatment of compounds at 9 points, 3.16 folds titration in 96 well plates over ˜72 hr. The compound starting concentrations were […]. Cell viability assay using CellTiterGlo in 96-well plate were performed. Compound treatment 72 hrs, standard growth conditions, duplicates. Compounds were dissolved to 40 mM with thawed […]. Compounds were serially diluted at 3.16 fold in thawed DMSO, and warmed to 37° C. before being dissolved in media ([…]). After compounds were dissolved in media, media containing compounds were warmed to 37° C. in incubator and then compounds in media were added to cell plates ([…]) in duplicates. The compounds' final concentrations were from […] to 19.9 nM. All compound solubilities were checked and recorded again, then the plates were transferred to CO2 tissue culture incubator immediately and incubated for 3 days. DMSO final concentration is 0.5%.

HS445 = assay: as above; conditions: Hs 445, 72 h
Experimental: as §2

MOLT-4 = assay: as above; conditions: Homo sapiens, MOLT-4, 72 h
Experimental: as §2

MV4-11 = assay: as above; conditions: Homo sapiens, MV4-11, 72 h
Experimental: as §2

NCI-H929 = assay: as above; conditions: Homo sapiens, NCI-H929, 72 h
Experimental: as §2

RL = assay: as above; conditions: Homo sapiens, 72 h
Experimental: as §2

RPMI-8226 = assay: as above; conditions: Homo sapiens, RPMI-8226, 72 h
Experimental: as §2

SW620 = assay: as above; conditions: Homo sapiens, SW-620, 72 h
Experimental: as §2

THP-1 = assay: as above; conditions: Homo sapiens, THP-1, 72 h
Experimental: as §2

Z138 = assay: as above; conditions: Homo sapiens, Z-138, 72 h
Experimental: as §2

KG1a cells = assay: Annexin V/propidium iodide in vitro apoptosis assay (LD50); conditions: 72 h
Experimental: The KG1a cell line was maintained in RPMI medium (Invitrogen, Paisley, UK) supplemented with 100 units/ml penicillin, 100 μg/ml streptomycin and 20% foetal calf serum. Cells were subsequently aliquoted (10^5 cells/100 μl) into 96-well plates and were incubated at 37° C. in a humidified 5% carbon dioxide atmosphere for 72 h in the presence of nucleoside analogues and their respective proTides at concentrations that were experimentally determined for each series of compounds. In addition, control cultures were carried out to which no drug was added. Cells were subsequently harvested by centrifugation and were analyzed by flow cytometry using the Annexin V assay.
Cultured cells were harvested by centrifugation and then resuspended in 195 μl of calcium-rich buffer. Subsequently, 5 μl of Annexin V (Caltag Medsystems, Botolph Claydon, UK) was added to the cell suspension and cells were incubated in the dark for 10 mins prior to washing. Cells were finally resuspended in 190 μl of calcium-rich buffer together with 10 μl of propidium iodide. Apoptosis was assessed by dual-colour immunofluorescent flow cytometry as described previously.
The data obtained in these experiments were evaluated using one way ANOVA. […] LD50 values were calculated from the non-linear regression and line of best-fit analysis of the sigmoidal dose-response curves. […]

[1] = tested on: leukaemic stem cell (LSC) compartment within the KG1a cell line; assay: Immunophenotypic identification of the leukaemic stem cell compartment; conditions: 72 h
Experimental: KG1a cells were cultured for 72 h in the presence of a wide range of concentrations of each compound assayed. Cells were then harvested and labelled with a cocktail of anti-lineage antibodies (PE-cy7), anti-CD34 (FITC), anti-CD38 (PE) and anti-CD123 (PERCP cy5). The sub-population expressing a LSC phenotype were subsequently identified and were expressed as a percentage of all viable cells left in the culture. The percentages of stem cells remaining were then plotted on a dose-response graph and the effects of the compounds were compared with each other, and with the parent nucleoside.
The data obtained in these experiments were evaluated using one way ANOVA. All data was confirmed as Gaussian or a Gaussian approximation using the omnibus K2 test. LD50 values were calculated from the non-linear regression and line of best-fit analysis of the sigmoidal dose-response curves. All statistical analyses were performed using Graphpad Prism 6.0 software (Graphpad Software Inc., San Diego, Calif.).

How did the EC50 (CCRFCEM; read-out: EC50 (absolute EC50)) turn out when CC(NP(=O)(OC[C@@H]1C[C@@H](O)[C@H](n2cnc3c(N)nc(Cl)nc32)O1)Oc1cccc2ccccc12)C(=O)OCc1ccccc1 (stereo in doubt) [S, (2R)-benzyl 2-((((2S,4R,5R)-5-(6-amino-2-chloro-9H-purin-9-yl)-4-hydroxytetrahydrofuran-2-yl)methoxy)(naphthalen-1-yloxy)phosphorylamino)propanoate] was run?
Its EC50 is 5 to 15 µM.

And the Emax (CCRFCEM)?
Its Emax is 100%.

What about the EC50 (HEL92.1.7; read-out: EC50 (absolute EC50)) of the same compound?
Its EC50 is 5 to 15 µM.

And the Emax (HEL92.1.7)?
Its Emax is 100%.

What about the EC50 (HL-60; read-out: EC50 (absolute EC50)) of the same compound?
Its EC50 is 5 to 15 µM.

And the Emax (HL-60)?
The Emax was 102%.

What about the EC50 (HT29; read-out: EC50 (absolute EC50)) of the same compound?
Its EC50 is 15 to 100 µM.

And the Emax (HT29)?
Its Emax is 88.1%.

And the EC50 (HepG2; read-out: EC50 (absolute EC50))?
Its EC50 is 15 to 100 µM.

What about the Emax (HepG2) of the same compound?
The Emax was 84.6%.

And the EC50 (K562; read-out: EC50 (absolute EC50))?
Its EC50 is 15 to 100 µM.

And the Emax (K562)?
The Emax was 101%.

And the EC50 (KG-1; read-out: EC50 (absolute EC50))?
Its EC50 is 15 to 100 µM.

And the Emax (KG-1)?
Its Emax is 99%.

What about the EC50 (MCF7; read-out: EC50 (absolute EC50)) of the same compound?
The EC50 was 15 to 100 µM.

And the Emax (MCF7)?
Its Emax is 101%.

And the EC50 (MiaPaCa-2; read-out: EC50 (absolute EC50))?
Its EC50 is 15 to 100 µM.

And the Emax (MiaPaCa-2)?
Its Emax is 98.2%.

And the EC50 (BxPC-3-Luc)?
Its EC50 is 15 to 100 µM.

And the EC50 (HS445; read-out: EC50 (absolute EC50))?
Its EC50 is 15 to 100 µM.

What about the Emax (HS445; read-out: MI %) of the same compound?
Its Emax is 106%.

What about the EC50 (MOLT-4; read-out: EC50 (absolute EC50)) of the same compound?
The EC50 was 5 to 15 µM.

And the Emax (MOLT-4; read-out: MI %)?
The Emax was 100%.

And the EC50 (MV4-11; read-out: EC50 (absolute EC50))?
The EC50 was 5 to 15 µM.

What about the Emax (MV4-11; read-out: MI %) of the same compound?
Its Emax is 101%.

What about the EC50 (NCI-H929; read-out: EC50 (absolute EC50)) of the same compound?
The EC50 was 5 to 15 µM.

And the Emax (NCI-H929; read-out: MI %)?
Its Emax is 102%.

What about the EC50 (RL; read-out: EC50 (absolute EC50)) of the same compound?
Its EC50 is 5 to 15 µM.

And the Emax (RL; read-out: MI %)?
The Emax was 100%.

What about the EC50 (RPMI-8226; read-out: EC50 (absolute EC50)) of the same compound?
The EC50 was 15 to 100 µM.

What about the Emax (RPMI-8226; read-out: MI %) of the same compound?
The Emax was 99.6%.

And the EC50 (SW620; read-out: EC50 (absolute EC50))?
The EC50 was 15 to 100 µM.

What about the Emax (SW620; read-out: MI %) of the same compound?
The Emax was 92.1%.

What about the EC50 (THP-1; read-out: EC50 (absolute EC50)) of the same compound?
Its EC50 is 15 to 100 µM.

What about the Emax (THP-1; read-out: MI %) of the same compound?
Its Emax is 97%.

And the EC50 (Z138; read-out: EC50 (absolute EC50))?
The EC50 was 15 to 100 µM.

What about the Emax (Z138; read-out: MI %) of the same compound?
Its Emax is 90.2%.

What does the source list for Nc1nc(F)nc2c1ncn2[C@@H]1O[C@H](CO)C[C@H]1O [2-F-Cordycepin, 3′deoxy-2-fluoroadenosine, reference compound]?
IC50 (CCRFCEM): 15 to 100 µM; Emax (CCRFCEM): 101%; IC50 (HEL92.1.7): 5 to 15 µM; Emax (HEL92.1.7): 99%; IC50 (HL-60): 5 to 15 µM; Emax (HL-60): 96%; IC50 (HT29): 15 to 100 µM; Emax (HT29): 73%; IC50 (HepG2): 15 to 100 µM; Emax (HepG2): 82%; IC50 (K562): 15 to 100 µM; Emax (K562): 97%; IC50 (KG-1): 5 to 15 µM; Emax (KG-1): 99%; IC50 (MCF7): 15 to 100 µM; Emax (MCF7): 97%; IC50 (MiaPaCa-2): 15 to 100 µM; Emax (MiaPaCa-2): 100%; in vitro drug sensitivity / potency (LD50 comparison, FIG. 1) (KG1a cells): significantly more potent than Cordycepin

Which IC50 (CCRFCEM) does the source give for C[C@H](NP(=O)(OC[C@@H]1C[C@H](O)[C@H](n2cnc3c(N)nc(F)nc32)O1)Oc1cccc2ccccc12)C(=O)OCc1ccccc1 (stereo partly drawn) [Compound O, 2-Fluoro-3′-deoxyadenosine-5′-O-[1-naphthyl(benzyloxy-L-alaninyl)] phosphate] here?
Its IC50 is 0.1 to 5 µM.

What about the Emax (CCRFCEM) of the same compound?
The Emax was 99%.

What about the IC50 (HEL92.1.7) of the same compound?
Its IC50 is 0.1 to 5 µM.

What about the Emax (HEL92.1.7) of the same compound?
The Emax was 100%.

And the IC50 (HL-60)?
The IC50 was 0.1 to 5 µM.

And the Emax (HL-60)?
Its Emax is 101%.

What about the IC50 (HT29) of the same compound?
Its IC50 is 15 to 100 µM.

And the Emax (HT29)?
The Emax was 84%.

And the IC50 (HepG2)?
The IC50 was 5 to 15 µM.

What about the Emax (HepG2) of the same compound?
Its Emax is 83%.

What about the IC50 (K562) of the same compound?
Its IC50 is 0.1 to 5 µM.

And the Emax (K562)?
Its Emax is 99%.

And the IC50 (KG-1)?
The IC50 was 5 to 15 µM.

And the Emax (KG-1)?
Its Emax is 99%.

And the IC50 (MCF7)?
The IC50 was 0.1 to 5 µM.

What about the Emax (MCF7) of the same compound?
Its Emax is 95%.

What about the IC50 (MiaPaCa-2) of the same compound?
Its IC50 is 0.1 to 5 µM.

And the Emax (MiaPaCa-2)?
The Emax was 100%.

And the “reduction of LSCs as a proportion of the cancer cells in culture (ability to target LSCs)” value ([1]; Lin−/CD34+/CD38−/CD123+)?
The value was “able to bring about a reduction in the proportion of LSCs”.

And the “LSC targeting compared with the parent nucleoside” value ([1]; for compound A at 1 mM and above)?
Its value is “not significantly different to 2-F-Cordycepin”.
